Each structure is given as a SMILES string. Active and inactive are the calls of the source. The calls are words filed in the database; no cut-off is given here.

One assay deals with HEK293. Briefly: Selectivity ratio of Ki for human 5-HT1A receptor to Ki for human 5-HT7B receptor expressed in HEK293 cells. Type of assay: cell-based.
Assay [1] has as its target T1, 5-hydroxytryptamine receptor 1A (Homo sapiens, UniProt P08908).
T1 sequence (P08908 whole entry): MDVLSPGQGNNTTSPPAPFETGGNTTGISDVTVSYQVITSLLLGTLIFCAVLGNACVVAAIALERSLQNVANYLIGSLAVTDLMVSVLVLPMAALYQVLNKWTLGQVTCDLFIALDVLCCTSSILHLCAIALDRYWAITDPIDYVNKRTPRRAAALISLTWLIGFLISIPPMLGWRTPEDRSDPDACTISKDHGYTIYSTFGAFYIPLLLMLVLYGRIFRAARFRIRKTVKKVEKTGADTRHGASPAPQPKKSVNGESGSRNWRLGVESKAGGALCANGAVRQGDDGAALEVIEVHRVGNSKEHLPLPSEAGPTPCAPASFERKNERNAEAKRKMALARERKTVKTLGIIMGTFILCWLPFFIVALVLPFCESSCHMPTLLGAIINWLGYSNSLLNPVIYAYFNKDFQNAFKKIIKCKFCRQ
As to the kind of experiment: Displacement of [3H]-8-OH-DPAT from human serotonin 5-HT1A receptor expressed in HEK293 cells after 1 hr by microplate reader based assay. Type of assay: cell-based.

The target in assay [2] is T2, 5-hydroxytryptamine receptor 7 (Homo sapiens, UniProt P34969). As to the kind of experiment: Displacement of [3H]-5-carboxyamidotryptamine from human serotonin 5-HT7B receptor expressed in HEK293 cells after 1 hr by microplate reader based assay. It counts as cell-based. (In general: In a radioligand displacement assay an active substance lowers the binding of a labelled ligand.)
T2 sequence (P34969 whole entry): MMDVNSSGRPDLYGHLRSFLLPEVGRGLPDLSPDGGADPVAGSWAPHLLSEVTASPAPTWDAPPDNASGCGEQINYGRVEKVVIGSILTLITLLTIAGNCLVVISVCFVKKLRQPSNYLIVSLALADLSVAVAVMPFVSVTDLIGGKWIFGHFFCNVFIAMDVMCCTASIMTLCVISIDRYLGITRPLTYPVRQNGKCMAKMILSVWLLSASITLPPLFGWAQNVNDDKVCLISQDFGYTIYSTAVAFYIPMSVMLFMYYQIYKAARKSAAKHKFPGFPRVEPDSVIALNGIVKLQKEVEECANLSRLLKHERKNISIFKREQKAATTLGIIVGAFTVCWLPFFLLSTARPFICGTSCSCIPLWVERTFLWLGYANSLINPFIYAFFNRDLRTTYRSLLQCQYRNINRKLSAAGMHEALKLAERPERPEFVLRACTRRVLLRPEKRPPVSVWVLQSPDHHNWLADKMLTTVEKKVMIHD

Assay [3] concerns the target T3, Adrenergic receptor alpha-1 (Rattus norvegicus, UniProt P15823+P23944+P43140).
T3 sequence (P15823 whole entry): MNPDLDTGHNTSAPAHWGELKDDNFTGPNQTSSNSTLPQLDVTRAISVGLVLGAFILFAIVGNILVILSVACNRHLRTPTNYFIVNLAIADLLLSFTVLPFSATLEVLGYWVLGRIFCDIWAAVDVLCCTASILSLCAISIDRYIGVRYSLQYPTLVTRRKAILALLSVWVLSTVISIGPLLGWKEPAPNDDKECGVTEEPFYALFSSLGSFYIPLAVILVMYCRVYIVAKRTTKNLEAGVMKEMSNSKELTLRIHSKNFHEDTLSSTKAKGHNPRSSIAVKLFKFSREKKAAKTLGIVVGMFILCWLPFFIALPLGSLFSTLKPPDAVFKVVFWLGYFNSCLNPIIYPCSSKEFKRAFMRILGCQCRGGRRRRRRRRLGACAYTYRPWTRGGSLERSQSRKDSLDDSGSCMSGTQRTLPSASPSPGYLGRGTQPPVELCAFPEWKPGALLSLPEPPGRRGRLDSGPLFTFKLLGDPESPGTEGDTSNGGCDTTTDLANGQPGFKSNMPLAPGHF
T3 sequence (P23944 whole entry): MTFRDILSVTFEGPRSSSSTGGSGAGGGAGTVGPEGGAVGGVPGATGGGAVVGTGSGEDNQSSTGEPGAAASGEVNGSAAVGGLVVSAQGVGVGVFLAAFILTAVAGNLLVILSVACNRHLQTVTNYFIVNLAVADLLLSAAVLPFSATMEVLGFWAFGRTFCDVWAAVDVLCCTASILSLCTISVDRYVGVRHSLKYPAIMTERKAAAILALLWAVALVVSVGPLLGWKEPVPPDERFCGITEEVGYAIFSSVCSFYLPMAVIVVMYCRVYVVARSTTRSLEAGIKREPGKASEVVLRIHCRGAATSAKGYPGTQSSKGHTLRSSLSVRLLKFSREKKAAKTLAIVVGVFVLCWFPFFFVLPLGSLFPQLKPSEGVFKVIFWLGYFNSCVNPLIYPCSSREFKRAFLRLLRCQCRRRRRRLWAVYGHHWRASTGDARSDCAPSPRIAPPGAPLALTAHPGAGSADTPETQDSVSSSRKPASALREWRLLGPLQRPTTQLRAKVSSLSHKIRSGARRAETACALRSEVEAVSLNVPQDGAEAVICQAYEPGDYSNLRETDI
T3 sequence (P43140 whole entry): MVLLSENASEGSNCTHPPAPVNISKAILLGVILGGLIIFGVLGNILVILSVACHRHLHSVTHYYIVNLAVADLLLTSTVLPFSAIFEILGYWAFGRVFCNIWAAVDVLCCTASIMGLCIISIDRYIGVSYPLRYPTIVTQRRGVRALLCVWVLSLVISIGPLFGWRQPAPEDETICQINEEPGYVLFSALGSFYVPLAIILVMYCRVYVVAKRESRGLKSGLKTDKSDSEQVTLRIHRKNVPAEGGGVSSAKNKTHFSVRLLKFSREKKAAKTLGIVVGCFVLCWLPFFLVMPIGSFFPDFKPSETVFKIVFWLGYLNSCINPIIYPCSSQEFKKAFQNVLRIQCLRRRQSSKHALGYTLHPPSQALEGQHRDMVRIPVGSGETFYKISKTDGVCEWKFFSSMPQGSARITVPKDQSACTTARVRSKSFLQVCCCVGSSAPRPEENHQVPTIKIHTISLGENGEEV
Briefly: Displacement of [3H]-Prazosin from alpha-1 adrenergic receptor in rat cerebral cortex after 1 hr by microplate reader based assay. It counts as tissue-based.

A further assay concerns Rattus norvegicus. As to the kind of experiment: Pro-cognitive effect in Sprague-Dawley rat assessed as reduction in PCP-induced memory deficits administered ip 1 hr 15 mins before familiarization phase by novel object recognition test. It counts as functional, organism-based.
The target of assay [4] is 5-hydroxytryptamine receptor 6 (Homo sapiens, UniProt P50406). As to the kind of experiment: Displacement of [3H]-LSD from human serotonin 5-HT6 receptor expressed in HEK293 cells after 1 hr by microplate reader based assay. It counts as cell-based.
Chain of 5-hydroxytryptamine receptor 6 (P50406 whole entry): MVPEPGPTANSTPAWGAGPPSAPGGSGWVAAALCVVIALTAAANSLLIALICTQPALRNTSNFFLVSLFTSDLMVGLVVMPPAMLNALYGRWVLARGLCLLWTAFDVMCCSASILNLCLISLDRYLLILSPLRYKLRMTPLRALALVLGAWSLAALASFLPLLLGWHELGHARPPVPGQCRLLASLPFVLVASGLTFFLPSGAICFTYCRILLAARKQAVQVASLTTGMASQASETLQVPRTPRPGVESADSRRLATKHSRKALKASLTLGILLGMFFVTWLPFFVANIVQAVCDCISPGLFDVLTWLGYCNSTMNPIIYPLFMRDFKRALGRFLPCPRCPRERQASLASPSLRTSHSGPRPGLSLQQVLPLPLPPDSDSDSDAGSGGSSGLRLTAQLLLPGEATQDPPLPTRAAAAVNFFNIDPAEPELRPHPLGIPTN
The target in the next assay is D(2) dopamine receptor (Homo sapiens, UniProt P14416). Briefly: Displacement of [3H]-Raclopride from human dopamine D2L receptor expressed in HEK293 cells after 1 hr by microplate reader based assay. Type of assay: cell-based.
Chain of D(2) dopamine receptor (P14416 whole entry): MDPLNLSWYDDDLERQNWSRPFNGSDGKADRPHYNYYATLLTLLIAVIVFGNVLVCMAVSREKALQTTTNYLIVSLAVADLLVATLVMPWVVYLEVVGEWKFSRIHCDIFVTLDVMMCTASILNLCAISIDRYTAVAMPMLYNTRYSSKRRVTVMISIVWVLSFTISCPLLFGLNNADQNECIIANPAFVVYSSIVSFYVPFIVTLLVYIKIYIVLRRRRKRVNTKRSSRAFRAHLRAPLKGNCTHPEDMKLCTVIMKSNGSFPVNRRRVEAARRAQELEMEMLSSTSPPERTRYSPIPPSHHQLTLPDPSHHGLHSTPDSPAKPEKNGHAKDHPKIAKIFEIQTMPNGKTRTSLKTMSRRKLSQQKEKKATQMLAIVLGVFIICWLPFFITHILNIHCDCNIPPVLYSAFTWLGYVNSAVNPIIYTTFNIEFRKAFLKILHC
For assay [5], the target named is T2, 5-hydroxytryptamine receptor 7. As to the kind of experiment: Antagonist activity at human serotonin 5-HT7B receptor expressed in CHO cells assessed as inhibition of serotonin-induced cAMP production at 1 uM after 30 mins by HTRF assay relative to control. Type of assay: functional, cell-based. In general terms: Changes in cAMP serve as a functional read-out for many G protein-coupled receptors.

The subject of a further assay is Mus musculus. As to the kind of experiment: Antidepressant-like activity in albino Swiss mouse assessed as reduction in immobility time at 10 mg/kg, ip dosed 60 mins before test by forced swim test. It counts as functional.

By Ki is commonly meant a measure of affinity in units of concentration, obtained from inhibition or displacement. High values mean lower affinity, low ones higher affinity. Consider `CC(C)c1ccccc1OCCN1CCC(NS(=O)(=O)c2cccc(Cl)c2)CC1`, for which the Ratio Ki in the assay on HEK293 is 22. For the same compound, the results for the Ki in assay [1] and in assay [2] were 178 nM and 8 nM, respectively.

The term inhibition denotes the relative decrease from the control value, in per cent. In the case of `O=S(=O)(NC1CCN(CCOc2ccccc2-c2ccccc2)CC1)c1cccc(Cl)c1`, the Ratio Ki with HEK293 came to 33. Besides, the Ki in [3] worked out at 2019 nM; in [1] it was 234 nM; in assay [2], 6 nM; in assay [4], 276 nM; on D(2) dopamine receptor, 85 nM. The Activity entry in the assay on Rattus norvegicus is “Dose-dependent effect”. Further, the inhibition in assay [5] is 95%.

Turning to `CC(C)c1ccccc1OCCN1CCC(NS(=O)(=O)c2ccc(F)c(F)c2)CC1`, the Ratio Ki in the assay with HEK293 worked out at 14. Also, the values for the inhibitory constant (Ki) in [1] and in assay [2] were 373 nM and 28 nM, respectively.

Regarding `O=S(=O)(NC1CCN(CCOc2ccccc2-c2ccccc2)CC1)c1cc(F)ccc1F`, in the assay with HEK293, the Ratio Ki came out at 26. Besides, the inhibitory constant (Ki) came to 183 nM in assay [1] and 7 nM in assay [2].

Regarding `Cn1cc(S(=O)(=O)NC2CCN(CCOc3ccccc3-c3ccccc3)CC2)cn1`, in the assay with HEK293, the Ratio Ki was determined as 17. The Ki in assay [1] was 321 nM; in [2] it was 19 nM.

Turning to `O=S(=O)(NC1CCN(CCOc2ccccc2-c2ccccc2)CC1)c1cccc2ncccc12`, in the assay with HEK293, the Ratio Ki stood at 13. Further, the inhibition constant Ki in [1] amounted to 102 nM; in [2] it was 8 nM.

Turning to `O=S(=O)(NC1CCN(CCOc2ccccc2-c2ccccc2)CC1)c1cccc(F)c1`, in the assay with HEK293, the Ratio Ki amounted to 10. Further, the Ki came to 368 nM in [1] and 36 nM in assay [2].

For the compound `O=S(=O)(NC1CCN(CCOc2ccccc2-c2ccccc2)CC1)c1cncc2ccccc12`, the Ratio Ki with HEK293 came out at 8. Further, the values for the Ki in assay [1] and in assay [2] were 74 nM and 9 nM, respectively.

Regarding `CC(C)c1ccccc1OCCN1CCC(NS(=O)(=O)c2cccc3ncccc23)CC1`, the Ratio Ki in the assay on HEK293 is 33. The Ki in assay [3] was 712 nM; in [1], 232 nM; in assay [2] it was 7 nM; in [4], 233 nM; on D(2) dopamine receptor it was 104 nM. The Activity entry in the assay on Rattus norvegicus is “Dose-dependent effect”. The inhibition in assay [5] is 96%.

For `O=S(=O)(NC1CCN(CCOc2ccccc2-c2ccccc2)CC1)c1ccc(F)c(F)c1`, in the assay on HEK293, the Ratio Ki was found to be 45. The compound also yielded a Ki in [3] of 2541 nM.

On to `CC(C)c1ccccc1OCCN1CCC(NS(=O)(=O)c2ccccc2)CC1`, for which, in the assay with HEK293, the Ratio Ki was determined as 6. In addition, the results for the inhibition constant Ki in assay [1] and in assay [2] were 249 nM and 42 nM, respectively.

Take `CC(C)c1ccccc1OCCN1CCC(NS(=O)(=O)c2ccc(Cl)s2)CC1`: the Ratio Ki with HEK293 came to 19. For the same compound, the results for the inhibition constant (Ki) in assay [1] and in assay [2] were 455 nM and 24 nM, respectively.

With `O=S(=O)(NC1CCN(CCOc2ccccc2-c2ccccc2)CC1)c1ccc(Cl)s1`, the Ratio Ki with HEK293 was found to be 16. The compound further returned a Ki in assay [1] of 190 nM.

In the case of `CC(C)CS(=O)(=O)NC1CCN(CCOc2ccccc2-c2ccccc2)CC1`, the Ratio Ki with HEK293 amounted to 2. The figures for the Ki in assay [1] and in assay [2] were 74 nM and 44 nM, respectively.

For `CC(C)c1ccccc1OCCN1CCC(NS(=O)(=O)c2cncc3ccccc23)CC1`, in the assay on HEK293, the Ratio Ki was 5. Moreover, the Ki was determined as 103 nM in [1] and 21 nM in [2].

Regarding `CC(C)c1ccccc1OCCN1CCC(NS(=O)(=O)c2cc(F)ccc2F)CC1`, the result in the assay with Mus musculus was Active. Further, the Ratio Ki in the assay on HEK293 was found to be 26. Also, the Ki in assay [3] was 589 nM; in assay [1], 208 nM; in assay [2], 8 nM; in assay [4], 324 nM; at D(2) dopamine receptor, 147 nM. In addition, the inhibition in [5] stood at 84%.

For the compound `CC(C)CS(=O)(=O)NC1CCN(CCOc2ccccc2C(C)C)CC1`, the Ratio Ki in the assay with HEK293 came to 1. Further, the inhibitory constant (Ki) in assay [1] is 278 nM; in assay [2], 200 nM.

With `O=S(=O)(NC1CCN(CCOc2ccccc2-c2ccccc2)CC1)c1ccccc1`, the Ratio Ki in the assay on HEK293 was determined as 6. The Ki in assay [1] amounted to 279 nM; in assay [2], 49 nM.

With `O=S(=O)(NC1CCN(CCOc2ccccc2-c2ccccc2)CC1)c1ccc(F)cc1`, the Ratio Ki in the assay with HEK293 was 23. The Ki worked out at 159 nM in assay [1] and 7 nM in assay [2].

Turning to `CC(C)c1ccccc1OCCN1CCC(NS(=O)(=O)c2cnn(C)c2)CC1`, the Ratio Ki in the assay with HEK293 worked out at 32. Further, the inhibition constant Ki came out at 389 nM in [3]; 616 nM in assay [1]; 19 nM in assay [2]; 641 nM in assay [4]; 140 nM on D(2) dopamine receptor. In addition, the inhibition in assay [5] worked out at 85%.

(Values after ChEMBL document CHEMBL3739404, “Arylsulfonamide derivatives of (aryloxy)ethylpiperidines as selective 5-HT7receptor antagonists and their psychotropic properties” (Medchemcomm, 2015).)
